The METLIN SMRT retention time set (Domingo-Almenara et al. 2019)

assay: gradient 5% acetonitrile 3 min, to 50% in 2 min, to 85% in 15 min, held 3 min, 100 µL/min; details: column: Zorbax Extend-C18 2.1 x 50 mm; eluents: water / acetonitrile, 0.1% formic acid
Summary of the method: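 Over 3 months, pure standards in mixtures of ~100 molecules were run by HPLC coupled to a quadrupole time-of-flight mass spectrometer in positive and negative ionization mode. The column was a Zorbax Extend-C18 (2.1 × 50 mm, 1.8 μm) at 100 μL/min, eluted with water and acetonitrile each holding 0.1% formic acid, with 40 μL dead and 900 μL dwell volumes. Retention time was determined from adduct peaks chosen by software and checked manually.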

| Compound | RP-LC retention time [s] |
| --- | --- |
| O=C(Nc1ccc(OCc2nnc(-c3ccccc3)o2)cc1)c1ccc(Cl)nc1 | 898 |
| O=C1CC(c2nc(-c3ccc(Cl)cc3)no2)CN1c1ccc(F)cc1 (stereo not drawn) | 1000 |
| CCCC(=O)N1CCc2c([nH]c3ccccc23)C12C(=O)Nc1ccccc12 (stereo not drawn) | 830 |
| CCCN1C(=O)C(CC(=O)NCC(C)C)Sc2ncccc21 (stereo not drawn) | 741 |
| CS(=O)(=O)CCNCc1nc(-c2ccc3ncnc(Nc4ccc(OCc5cccc(F)c5)c(Cl)c4)c3c2)cs1 | 717 |
| c1ccc(-c2nnc(-c3ccccc3OCc3cn4ccccc4n3)o2)cc1 | 702 |
| Cc1ccc(-c2noc(Cn3ncn4nc(-c5cccs5)cc4c3=O)n2)cc1 | 1100 |
| CCOc1ccc(CN2C(=O)C3(CCOCC3)CC2c2nnnn2C(C)(C)C)cc1 (stereo not drawn) | 833 |
| COc1cccc(NC(=O)c2sc(C)nc2-c2ccc([N+](=O)[O-])cc2)c1 | 849 |
| O=C(Cn1ncc2c(c1=O)N(CC1CC1)C(=O)CS2)Nc1ccccc1C(F)(F)F | 831 |
| c1ccc(-c2cc3ccccc3[nH]2)cc1 | 1090 |
| COc1ccc2nc(NCCn3cccn3)sc2c1 | 599 |
| CC1CCN(S(=O)(=O)c2ccc3c(c2)-c2oncc2CO3)CC1 | 673 |
| CCCS(=O)(=O)N1CCOc2ccc(NC(=O)C3CC3)cc2C1 | 754 |
| COc1ccc(NC(=O)Nc2c(-c3ccncc3)[nH]c3ccc(F)cc23)c(OC)c1 | 683 |
| O=C(NCc1ccc(F)cc1)c1ccc(-c2ccsc2)nc1 | 854 |
| COC(=O)C1=CN(c2ccccc2)c2cc(F)c(F)cc2S1(=O)=O | 858 |
| COc1ccc2c(c1)C1(CCN(C(=O)Cc3cccc(F)c3)C1)C(=O)N2C (stereo not drawn) | 788 |
| CCn1c(C(=O)NCCc2c[nH]c3ccccc23)cc2c(-c3cccs3)nn(-c3ccccc3)c21 | 1150 |
| CC(C)OCCCNC(=O)c1cn(C)cc2c(=O)n(-c3ccccc3)nc1-2 | 851 |
| COc1ccc(-c2ccc(S(=O)(=O)NCc3ccc(C(=O)O)cc3)cc2)cc1 | 801 |
| Cn1ncc2c3ccccc3n(CC(=O)NCCc3cccs3)c2c1=O | 784 |
| Cc1cc2c(cc1C(=O)NCc1ccc3c(c1)CCCO3)OCCCO2 | 872 |
| O=C(Nc1ccccc1Cl)Nc1c(-c2ccc(F)cc2)nc2ccccn12 | 695 |
| COCc1noc([C@@H]2CN(C(=O)c3noc(C)c3COC)C[C@H]2C(N)=O)n1 | 625 |
| CNCc1ccc(-c2ccc(F)c(Cl)c2)o1 | 644 |

| Compound | RP-LC retention time [s] |
| --- | --- |
| CCn1cnc2ccc(-c3noc(-c4ccc(Cl)cc4)n3)cc21 | 863 |
| CC(C)C(=O)Nc1ccc(-n2cnc(C(=O)NCc3ccccc3)c2)nc1 | 738 |
| COC(=O)c1ncn2c1C(=O)N(Cc1ccc(C)cc1)C(C)(C(=O)NCc1ccc(C)cc1)C2 (stereo not drawn) | 788 |
| Cc1ccc(Cl)cc1NS(=O)(=O)c1c(C)sc(C)c1-c1cc(C(F)(F)F)on1 | 1220 |
| O=C(Nc1cccc(F)c1)c1c(O)c2cccnc2n(-c2cccc(F)c2)c1=O | 723 |
| CCc1ccc(OC(C)C(=O)N(Cc2ccc(C)o2)C2CCS(=O)(=O)C2)cc1 (stereo not drawn) | 984 |
| O=C1N(c2ccc(F)cc2)c2ncccc2S(=O)(=O)N1Cc1ccccc1 | 1020 |
| O=C(Nc1ccc(F)cc1)c1cnc(-c2ccc(F)cc2)nc1-c1ccncc1 | 898 |
| Cc1cc(C)cc(C(=O)N2CCCC(C(=O)NCCc3cccs3)C2)c1 (stereo not drawn) | 850 |
| C[C@@H]1c2ccccc2CCN1C(=O)c1ccccc1F | 919 |
| Cc1ccc(CNC(=O)c2cc3c(=O)n(C)ccc3n2C)o1 | 668 |
| O=c1c2sccc2n(Cc2nc(-c3ccccc3)no2)c(=O)n1-c1ccc(Cl)cc1 | 1040 |
| COC(=O)CNC(=O)c1cc2c(=O)n(C)c3ccccc3n2n1 | 676 |
| CC(C)NC(=O)C1CC(=O)N(CCc2c[nH]c3ccc(Cl)cc23)C1 (stereo not drawn) | 731 |
| Cc1nnc2c(=O)n(CC(=O)N3CCCC(C)C3)c3cccnc3n12 (stereo not drawn) | 668 |
| COc1cc(CCC(=O)N2CC(c3noc(C4CCCN4C)n3)C2)on1 (stereo not drawn) | 570 |
| CCN(C(=O)c1ccco1)c1nc(-c2ccccc2)cs1 | 1180 |
| Cc1cccc(-c2noc(Cn3c(=O)n(-c4ccc(Cl)cc4)c(=O)c4sccc43)n2)c1 | 1100 |
| O=C(c1ccccc1)N1C[C@@H]2C[C@H]1C[C@@H]2NS(=O)(=O)c1cccnc1 | 630 |
| O=C(Nc1cccc(F)c1)[C@@H]1OCCN(C2CC2)[C@H]1c1ccccc1 | 675 |
| Cc1nc(-c2cccc(-c3noc(CN4C(=O)COc5ccc(Cl)cc54)n3)c2)cs1 | 1180 |
| Cc1cc(Cl)ccc1NC(=O)C1CCCN1S(=O)(=O)c1cc2c(cc1C)NC(=O)C(C)O2 (stereo not drawn) | 914 |
| COc1ccc2c(c1)CCN(C(=O)c1csc(-n3cccc3)n1)C2 | 895 |
| Cn1cc(-c2nc(C(=O)NCc3cc(F)cc(F)c3)cs2)c2cccnc21 | 944 |
| CCOc1cccc(-c2noc(-c3nnn4c3COC(c3ccc(Cl)cc3)C4)n2)c1 (stereo not drawn) | 1320 |
| CCCC(=O)Nc1ccc2c(c1)CC(C(=O)NCC(=O)OC)CO2 (stereo not drawn) | 650 |

Continued, values first:

| RP-LC retention time [s] | Compound |
| --- | --- |
| 670 | CC#CCn1c(N2CCC[C@@H](N)C2)nc2c1c(=O)n(Cc1nc(C)c3ccccc3n1)c(=O)n2C |
| 624 | O=C(NCc1cccnc1)C1c2ccccc2C(=O)N1C1CCCCCC1 (stereo not drawn) |
| 614 | COc1cc(CN2CCC3(CCC3O)CC2)ccc1OC(C)C (stereo not drawn) |
| 879 | O=C(Nc1ccc2c(c1)CCCN2C(=O)C1CC1)c1cc(Br)ccc1Cl |
| 765 | CC(=O)c1cccc(NC(=O)CCc2c(C)nn(-c3cc(N4CCCC4)ncn3)c2C)c1 |
| 865 | Cc1cccc(-c2noc(Cn3ccn(-c4ccccc4C)c(=O)c3=O)n2)c1 |
| 760 | COc1ccc(NC(=O)C2CCN(S(=O)(=O)c3cc(C(=O)N4CCCC4)cs3)CC2)cc1 |
| 933 | COc1ccccc1CNC(=O)c1c(O)c2cccnc2[nH]c1=O |
| 917 | Cc1ccc(NC(=O)C2CCCN(c3ccc4cc(S(=O)(=O)N5CCCCC5)ccc4n3)C2)cc1 (stereo not drawn) |
| 730 | O=C(Nc1nnc(Cc2ccccc2)s1)C1CC(=O)N(c2n[nH]c3ccccc23)C1 (stereo not drawn) |
| 732 | CC1=C(c2ccc(C)cc2)S(=O)(=O)N=C1N1CCCN(C(=O)C2CCOC2)CC1 (stereo not drawn) |
| 656 | COc1ccccc1NC(=O)Cn1cnc2nc(N3CCC(C(=O)NC4CC4)CC3)sc2c1=O |
| 637 | O=S(=O)(c1cccnc1)N1CCC(OC2CCN(Cc3ccccc3)CC2)CC1 |
| 677 | Cn1c(N2CCN(C(=O)Cc3ccc(Cl)cc3)CC2)cc(=O)n(C)c1=O |
| 646 | CN(C)S(=O)(=O)c1ccc2c(c1)N(CC(=O)NCc1ccccn1)C(=O)C1CCCCN21 (stereo not drawn) |
| 726 | CCN(CC)c1ncc2c(n1)CCC(C(=O)Nc1ccc(OC)c(F)c1)C2 (stereo not drawn) |
| 837 | COCCn1cnc2c(-c3ccccc3)cn(CC(=O)NC3CCCC3)c2c1=O |
| 929 | Cc1ccc(C)c(NC(=O)N2CCC(n3cnc4ccc(Cl)cc4c3=O)CC2)c1 |

| RP-LC retention time [s] | Compound |
| --- | --- |
| 613 | COc1ccc(-c2cc(C(=O)N3CCN(C)CC3)nn2C2CCS(=O)(=O)C2)cc1 (stereo not drawn) |
| 1040 | Cc1nc(-c2ccc3c(c2)CCN3C(=O)c2nccc3ccccc23)cs1 |
| 768 | CCOC(=O)c1nc(NCCc2cc(OC)ccc2OC)c2ccccc2n1 |
| 635 | O=C(NCCc1ccccc1)N1CCCC(Cn2cnc3cccnc32)C1 (stereo not drawn) |
| 697 | CCn1cnnc1C1CCCCN1C(=O)CCc1c[nH]c2ccccc12 (stereo not drawn) |
| 894 | Cc1cc2c(c(=O)n(-c3ccccc3)c(=O)n2CC(=O)Nc2ccc(Br)cc2F)n1C |
| 665 | CCOc1cccc(CNc2nc3ccncc3n(CC)c2=O)c1 |
| 881 | CCOC(=O)CNC(=O)N1CCN(c2nc3ccccc3nc2C(F)(F)F)CC1 |
| 756 | COc1ccc2[nH]cc(CCNC(=O)Cn3nc4c(cc3=O)CCCCC4)c2c1 |
| 849 | COc1ccc(OC)c(NC(=O)C2CC(=O)N(CCc3c[nH]c4ccc(Cl)cc34)C2)c1 (stereo not drawn) |
| 623 | CCCN1CCN(C(=O)Cn2nc(C)c3sc(-c4ccccc4)nc3c2=O)CC1 |
| 688 | C=CCN1CC(c2nc3ccccc3n2Cc2c(F)cccc2Cl)CC1=O (stereo not drawn) |
| 947 | Cc1ccc(CCNC(=O)c2ccc3c(c2)N(C)C(=O)C2CCCCN32)cc1 (stereo not drawn) |
| 622 | O=C(NCc1ccnc(N2CCCCCC2)c1)Nc1ccc2c(c1)OCO2 |
| 609 | COc1cc2nc(N3CCCN(C)CC3)nc(NC3CCN(Cc4ccccc4)CC3)c2cc1OC |
| 630 | COc1ccc(C(=O)c2cccc(N)c2)cc1OC |
| 1030 | COc1ccccc1CNC(=O)c1sc(-c2cn(C(C)C)c3ncccc23)nc1C |
| 714 | CCn1nccc1C(=O)N1CCCN(C2=NS(=O)(=O)C(c3ccccc3)=C2C)CC1 |
